Results reported in patent EP0537742B1, “Styrene derivatives” (Mitsubishi Chemical Corporation, priority 1991, dated 1993).
Like-named read-outs stand apart in the source and are kept apart here.

Columns and labels:
SKOV3 cell line = experiment: Test on cancer cells in tissue culture (proliferation inhibition, MTT); assay type: cell-based; settings: Homo sapiens, SK-OV-3, 72 h
Procedure: Effect of the test material against the proliferation of cultivated cancer cells was examined with this SKOV3 cell line as follows:
SKOV3 cell was inoculated at a rate of 1 x 10^3 cell/well on a 96 well dish, and cultivated on a DMEM: F12 (1 : 1) medium containing 10% FCS and 0.1 mg/ml kanamycin at 37°C in a stream of 5% carbon dioxide for one day. Test material dissolved in DMSO was added to the medium (final concentration of DMSO was below 0.1%), which was cultivated for 3 days under the conditions mentioned above. Test material was replaced every 24 hours together with the medium.
Counting the number of living cells was effected by making colorimetric analysis at two wave length, 550 nm and 610 nm, in reference to the assaying method as described in Michael C. Alley et al., Cancer Research, 48, 589 (1988) using MTT reagent, and the number obtained was defined as "a".
At the same time, the count of the number of living cells obtained without adding the test material was assayed, and the number obtained was defined as "b".
Cell proliferation inhibitory rate was determined according to the following equation: Inhibitory Rate (%) = (b-a)/b x 100 [formula]

[1] = target: T1, human EGF (epidermal cell growth factor) receptor tyrosine kinase (Homo sapiens, UniProt P00533); experiment: Tyrosine kinase activity inhibition (partially purified EGF receptor from A431 cell membrane fraction, RR-SRC peptide, 32P-ATP); assay type: biochemical; settings: for inhibition at 10 µM: read-out: Inhibitory Rate (%) in the presence of 10 µM; for inhibition at 1 µM: read-out: Inhibitory Rate (%) in the presence of 1 µM
T1 construct: A431 cell membrane fraction, which was provided for the assay as the partially purified EGF receptor, enzyme source; endogenous in cells; host or cells: A431 (human squamous cell carcinoma), crude membrane fraction (27500 x g pellet)
T1 sequence (P00533 25-1210): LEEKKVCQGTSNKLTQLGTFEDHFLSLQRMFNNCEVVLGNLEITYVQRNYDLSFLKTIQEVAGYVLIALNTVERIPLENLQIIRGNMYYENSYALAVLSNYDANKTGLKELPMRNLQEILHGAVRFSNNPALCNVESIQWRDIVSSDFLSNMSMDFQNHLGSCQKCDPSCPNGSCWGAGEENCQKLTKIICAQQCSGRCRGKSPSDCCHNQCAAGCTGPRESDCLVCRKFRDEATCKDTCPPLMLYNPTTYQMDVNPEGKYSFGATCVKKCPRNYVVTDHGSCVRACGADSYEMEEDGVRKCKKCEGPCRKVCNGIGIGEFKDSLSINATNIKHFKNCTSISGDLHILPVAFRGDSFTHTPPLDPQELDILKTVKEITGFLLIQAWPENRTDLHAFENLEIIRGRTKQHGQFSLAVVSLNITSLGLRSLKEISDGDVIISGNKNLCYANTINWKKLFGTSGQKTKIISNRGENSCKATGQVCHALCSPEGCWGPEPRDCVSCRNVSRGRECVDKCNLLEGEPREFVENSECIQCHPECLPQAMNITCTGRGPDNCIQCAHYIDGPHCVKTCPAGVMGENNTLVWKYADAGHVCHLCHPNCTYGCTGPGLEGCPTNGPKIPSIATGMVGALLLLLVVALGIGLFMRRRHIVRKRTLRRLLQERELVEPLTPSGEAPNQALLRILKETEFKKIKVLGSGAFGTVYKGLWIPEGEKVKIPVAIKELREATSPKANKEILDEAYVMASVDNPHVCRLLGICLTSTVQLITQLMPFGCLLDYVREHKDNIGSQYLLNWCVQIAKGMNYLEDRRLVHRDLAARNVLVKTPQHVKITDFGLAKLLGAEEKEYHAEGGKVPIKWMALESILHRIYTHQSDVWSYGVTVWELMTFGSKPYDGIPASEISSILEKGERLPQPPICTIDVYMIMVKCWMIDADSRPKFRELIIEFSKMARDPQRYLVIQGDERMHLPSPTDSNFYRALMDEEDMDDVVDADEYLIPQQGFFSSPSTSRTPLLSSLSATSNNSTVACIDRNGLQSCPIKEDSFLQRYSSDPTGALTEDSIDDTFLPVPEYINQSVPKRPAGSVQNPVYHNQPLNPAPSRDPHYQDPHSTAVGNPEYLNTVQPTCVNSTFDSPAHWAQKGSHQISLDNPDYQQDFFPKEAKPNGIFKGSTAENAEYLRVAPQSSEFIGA
T1 sequence (P01133 971-1023 partner limits assumed): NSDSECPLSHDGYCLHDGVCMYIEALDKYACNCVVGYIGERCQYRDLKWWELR
Procedure: Detailed explanation of the assaying method will be given below.
A431 cells were cultivated in Dulbecco's modified Eagle's medium (DMEM) containing 10% fetal calf serum (FCS) at 37°C in a stream of 5% carbon dioxide, and the resultant cells were homogenized in a solution containing 10 mM N-2-hydroxyethylpiperazino-N'-2-ethanesulfonic acid (Hepes) buffer (pH 7.4), 0.25M sucrose and 0.1 mM EDTA and centrifuged at 1000 g for 5 minutes.
At that time the volume was 60 µl. The reaction was allowed to perform in ice for 30 minutes and stopped by adding 10 mg/ml bovine serum albumin (6 µl) and 20% trichloroacetic acid (25 µl). The mixture was allowed to stand in ice for 30 minutes.
Then the mixture was centrifuged at 5000 x g for 2 minutes, and the supernatant (40 µl) was sampled and adsorbed on P81 phosphocellulose paper. […] The count obtained was defined as "A". At the same time, counts of the reaction not containing the test material and the reaction not containing both the test material and EGF were assayed, and the resulted counts were defined as "B" and "C" respectively.

[2] = Toxicity test, intraperitoneal administration; assay type: in vivo, Mouse ddy (male)
Procedure: Toxicity test for the compounds of the present invention was examined in the manner as shown below. Test compound Compound No. 4 Test animal Mouse ddy (male) 16 - 20 g
Test compound was suspended in a mixture of 0.25% carboxymethyl cellulose, physiological saline, and a small amount of Tween 80 to give a test solution. This solution was administered intraperitoneally at dose of 0 mg/kg (control), 500 mg/kg and 1000 mg/kg to the test animal. Change of the body weight was measured 3 days later.

[3] = Table 5: Proliferation Inhibitory Effect Against Cultivated Cells, 3 days, read-out: IC50
[4] = Tyrosine Kinase Activity Inhibitory Effect, test material 10 µM

Row | SMILES | IC50 (SKOV3 cell line; [3]) [µM] | also measured
1 | N#CC(=Cc1cc(O)c(O)c(Br)c1)C(=O)Nc1cccc(Cl)c1 [Compound No. 6, N-(3-chlorophenyl)-2-cyano-3-(3-bromo-4,5-dihydroxyphenyl) propenamide] | 21 | 
2 | N#CC(=Cc1ccc(O)c(O)c1)C(=O)Nc1ccc(Cl)cc1 [Compound No. 12, N-(4-chlorophenyl)-2-cyano-3-(3,4-dihydroxyphenyl) propenamide] |  | inhibition at 10 µM [1, 4]: 52%
3 | COc1cc(C=C(C#N)C(=O)Nc2ccccc2)cc(Br)c1O [compound 105] | 13 | 
4 | N#CC(=Cc1cc(O)c(O)c(Cl)c1)C(=O)Nc1cccc(Cl)c1 [Compound No. 4, N-(3-chlorophenyl)-2-cyano-3-(3-chloro-4,5-dihydroxyphenyl) propenamide] | 21.6 | dead case ([2]; 500 mg/kg intraperitoneally): No dead case was observed; dead case ([2]; 1000 mg/kg intraperitoneally): No dead case was observed
5 | N#CC(=Cc1ccc(O)c(O)c1)C(=O)Nc1ccccc1 [Reference 1), reference compound] |  | IC50 (SKOV3 cell line): 35 µM
6 | N#CC(=Cc1cc(O)c(O)c(C(F)(F)F)c1)C(=O)Nc1cccc(Cl)c1 [Compound No. 98, N-(3-chlorophenyl)-2-cyano-3-[3,4-dihydroxy-5-(trifluoromethyl)phenyl] propenamide] | 16 | 
7 | CCOc1cc(C=C(C#N)C(N)=O)cc(CSc2ccccc2)c1O [Reference 2), reference compound] | 78 | 
8 | N#CC(=Cc1ccc(O)c(O)c1)C(=O)Nc1cccc(Br)c1 [Compound No. 11, N-(3-bromophenyl)-2-cyano-3-(3,4-dihydroxyphenyl) propenamide] |  | inhibition at 10 µM [1, 4]: 77%
9 | N#CC(=Cc1cc(O)c(O)cc1[N+](=O)[O-])C(=O)Nc1cccc(Cl)c1 [Compound No. 16, N-(3-chlorophenyl)-2-cyano-3-(4,5-dihydroxy-2-nitrophenyl) propenamide] | 24 | 
10 | N#CC(=Cc1cc(O)c(O)c(C#N)c1)C(=O)Nc1cccc(Cl)c1 [Compound No. 15, N-(3-chlorophenyl)-2-cyano-3-(3-cyano-4,5-dihydroxyphenyl) propenamide] | 34 | 
11 | N#CC(=Cc1ccc(O)c(O)c1)C(=O)Nc1ccc(Br)cc1 [Compound No. 10, N-(4-bromophenyl)-2-cyano-3-(3,4-dihydroxyphenyl) propenamide] |  | inhibition at 10 µM [1, 4]: 47%
12 | N#CC(=Cc1cc(O)c(O)c(F)c1)C(=O)Nc1cccc(Cl)c1 [Compound No. 8, N-(3-chlorophenyl)-2-cyano-3-(3-fluoro-4,5-dihydroxyphenyl) propenamide] | 23.4 | inhibition at 1 µM [1]: 78%
13 | Cc1cc(C=C(C#N)C(=O)Nc2cccc(Cl)c2)cc(O)c1O [compound 110] | 14 | 
14 | N#CC(=Cc1ccc(O)c(O)c1)C(=O)Nc1cccc(Cl)c1 [Compound No. 13, N-(3-chlorophenyl)-2-cyano-3-(3,4-dihydroxyphenyl) propenamide] | 30 | inhibition at 1 µM [1]: 46%; inhibition at 10 µM [1]: 100%
15 | N#CC(=Cc1cc(O)c(O)c(Br)c1Br)C(=O)Nc1cccc(Cl)c1 [Compound No. 9, N-(3-chlorophenyl)-2-cyano-3-(2,3-dibromo-4,5-dihydroxyphenyl) propenamide] | 17 | 
16 | COc1cc(C=C(C#N)C(=O)Nc2cccc(Cl)c2)cc(F)c1O [Compound No. 7, N-(3-chlorophenyl)-2-cyano-3-(3-fluoro-4-hydroxy-5-methoxyphenyl) propenamide] |  | inhibition at 1 µM [1]: 41%
17 | N#CC(=Cc1cc(Br)c(O)c(Br)c1)C(=O)Nc1cccc(Cl)c1 [compound 100] | 19 | 
18 | O=CNC=Cc1ccc(O)c(O)c1 [Reference 3), reference compound] |  | IC50 ([1]; Table 3, tyrosine kinase inhibition): 12 µM
19 | COc1cc(C=C(C#N)C(=O)Nc2ccccc2)cc(Cl)c1O [Compound No. 1, 2-cyano-3-(3-chloro-4-hydroxy-5-methoxyphenyl) propeneanilide] | 17.3 | inhibition at 10 µM [1]: 63%
20 | Cc1cccc(NC(=O)C(C#N)=Cc2ccc(O)c(O)c2)c1 [Compound No. 14, N-(3-methylphenyl)-2-cyano-3-(3,4-dihydroxyphenyl) propenamide] |  | inhibition at 10 µM [1]: 77%
21 | N#CC(=Cc1cc(O)c(O)c(Cl)c1)C(=O)Nc1ccccc1 [Compound No. 2, 2-cyano-3-(3-chloro-4,5-dihydroxyphenyl)propenanilide] | 20.4 | inhibition at 10 µM [1]: 74%
22 | N#CC(C(=O)Nc1ccccc1)=C(O)c1ccc(O)c(O)c1 [Compound No. 119, 2-cyano-3-hydroxy-3-(3,4-dihydroxyphenyl) propenanilide] | 24 | 
